According to PMC12316308, “Interactions of substrates and phosphinyl containing inhibitors with bacterial and human zinc proteases” (PLOS One, 2025):
Several values for one entry are separate records, joined by “and”; a condition that tells them apart may be missing. Equal values may be shown once.

Columns and labels:
[1] = system: MMP-12; parameters: method as in PMID 27996256, PMID 23343195; details: cited from earlier work
[2] = target: T1, human MT1-MMP/MMP-14 (catalytic domain) (Homo sapiens, UniProt P50281); experiment: Enzyme inhibition kinetics, fluorogenic substrate ES001; type: biochemical; details: inhibitor 10 μM
T1 construct: human MT1-MMP/MMP-14 (catalytic domain); purchased Calbiochem (San Diego, CA, USA)

Compound	pH dependence of Ki [1]	vi/v0 (relative enzyme activity with inhibitor), single determinations ([2]; preincubation 15 min)	vi/v0 (relative enzyme activity with inhibitor), single determinations ([2]; preincubation 30 min)
NC(=O)C(CCC(=O)O)NC(=O)C(CCC(=O)O)NC(=O)C(Cc1cc(-c2ccc(-c3cccc(Cl)c3)cc2)no1)CP(=O)(O)c1ccc(Br)cc1 (stereo not drawn) [H-1]	increasing approximately ten times for each unit increase in buffer pH	–	–
NC(=O)C(Cc1c[nH]c2ccccc12)NC(=O)C(CCCc1ccccc1)CP(=O)(O)C(Cc1ccccc1)NC(=O)OCc1ccccc1 (stereo not drawn) [H-2]	–	0.1646 and 0.1715 and 0.1368 and 0.1654	0.1465 and 0.1449 and 0.1477 and 0.1505
